Three compounds from patent US20110059909A1, “METHODS FOR TREATING INFLAMMATORY DISORDERS” (priority 2004, published 2011) can be followed below.

The subject of one data set is GalT-2. In words: GalT-2 protein level by immunoblot after antisense transfection. In kind it is cell-based, rat. To be noted: 48 h after transfection, 200 nM oligo. The method, then: For iNOS protein, the cells were washed with cold Tris buffered saline (TBS; 20 mM Trizma base, and 137 mM NaCl, pH 7.5), lysed in 1×SDS sample loading buffer (62.5 mM Trizma base, 2% w/v SDS, 10% glycerol), following sonication and centrifugation at 15,000×g for 5 min, the supernatant was used for the iNOS western immunoblot assay. The protein concentration of samples was determined with the detergent compatible protein assay reagent (Bio-Rad Laboratories, CA) using bovine serum albumin (BSA) as the standard. Sample was boiled for 3 min with 0.1 volumes of 10% β-mercaptoethanol and 0.5% bromophenol blue mix. […] The membranes were detected by autoradiography using ECL-plus (Amersham Pharmacia Biotech) after washing with TBST buffer.
A 20-mer antisense oligonucleotide of the following sequence (5′-CGCTTGAGCGCAGACATCTT-3′, SEQ ID NO:1) targeted against rat lactosylceramide synthase (GalT-2) were synthesized by Integrated DNA Technology. […] Cells were counted and plated a day before transfection and the following day were treated with Oligofectamine (Invitrogen)-oligonucleotide complexes (200 nM oligo) under serum free conditions. 48 h following transfection, the protein levels of GalT-2 were analyzed using polyclonal antibodies raised against rat GalT-2 (Abjent Inc., CA). […]

The subject of data set [1] is ERK1/2. In words: ERK1/2 activation (phospho-ERK1/2 immunoblot) in primary astrocytes. The format is cell-based, rat. The method, then: For iNOS protein, the cells were washed with cold Tris buffered saline (TBS; 20 mM Trizma base, and 137 mM NaCl, pH 7.5), lysed in 1×SDS sample loading buffer (62.5 mM Trizma base, 2% w/v SDS, 10% glycerol), following sonication and centrifugation at 15,000×g for 5 min, the supernatant was used for the iNOS western immunoblot assay. The protein concentration of samples was determined with the detergent compatible protein assay reagent (Bio-Rad Laboratories, CA) using bovine serum albumin (BSA) as the standard. Sample was boiled for 3 min with 0.1 volumes of 10% β-mercaptoethanol and 0.5% bromophenol blue mix. Fifty μg of total cellular protein was resolved by electrophoresis on 8 or 12% polyacrylamide gels, electro-transferred to polyvinylidene difluoride (PVDF) filter and blocked with Tween 20 containing Tris-buffered saline (TBST; 10 mM Trizma base-pH 7.4, 1% Tween 20, and 150 mM NaCl) with 5% skim milk. After incubation with antiserum against iNOS (BD PharMingen, CA), rat GalT-2 (Abjent Inc., CA), H-Ras (Upstate Biotechnology, CA), GFAP (Santa Cruz Biotech, CA), or phospho-specific ERK1/2 (Cell signaling Tech Inc., MA), or pIκ-B (Signal Transduction), in PVDF buffer for 2 h at room temperature, the filters were washed 3 times with TBST buffer and then incubated with horseradish peroxidase conjugated anti-rabbit or mouse IgG for 1 h. The membranes were detected by autoradiography using ECL-plus (Amersham Pharmacia Biotech) after washing with TBST buffer.

The subject of a further data set is small GTPase Ras. In words: Quantification of Ras activation (GST-Raf-1 RBD pull-down) in primary astrocytes. The format is cell-based, rat. As for the experimental part: After stimulation, primary astrocytes in 6-well plates were washed with ice cold PBS and lysed in membrane lysis buffer (MLB; 0.5 ml of 25 mM HEPES, pH 7.5, 150 mM NaCl, 1% Igepal CA-630, 0.25% sodium deoxycholate, 10% glycerol, 10 mM MgCl2, 1 mM EDTA, 25 mM NaF, 1 mM of sodium orthovanadate, and EDTA free Complete™ protease inhibitor cocktail). After centrifugation (5,000×g) at 4° C. for 5 min, supernatant was used for Ras activation assay. One hundred μg of supernatant was used for binding with agarose conjugated Ras-binding domain (RBD) of Raf-1 which was expressed in BL21 (Invitrogen), Escherichia coli strain, transformed by pGEX-2T-GST-RBD in the presence of 0.1 mM of IPTG as described previously (Herrmann et al., 1995). The binding reaction was performed at 4° C. for 30 min in MLB. Following washing with MLB three times, Ras-RBD complex were denatured by adding of 2×SDS sample buffer. Ras protein was identified by western blot analysis with Ras antibodies from Upstate Biotechnology.

The next data set relates to NF-κB. Kind of data set: κB-repeat luciferase reporter gene assay. In kind it is cell-based, rat. As for the experimental part: Dominant negative and constitutively active ras expression vector (pCMVrasN17 and pCMVrasv12) and κB repeat luciferase reporter construct (pNF-κB-Luc) were purchased from BD Biosciences. 3×10^5 cells/well were cultured in 6-well plates for one day before the transfection. Transfection was performed with plasmid concentration constant (2.5 μg/transfection) and 8 μl of Fugene transfection reagent (Roche Molecular Biochemicals). 24 h after transfection, the cells were placed in serum free media for overnight. Following appropriate treatment, the cells were washed with phosphate buffered saline (PBS), scraped, and then resuspended with 100 μl of lysis buffer (40 mM of Tricine pH 7.8, 50 mM of NaCl, 2 mM of EDTA, 1 mM of MgSO4, 5 mM of dithiothreitol, and 1% of Triton X-100). After incubation at room temperature for 15 min with occasional vortexing, the samples were centrifuged. The luciferase and β-galactosidase activities were measured by using luciferase assay kit (Stratagene, CA) and β-gal assay kit (Invitrogen, CA) respectively. The emitted light and optical absorbance was measured using Spectra Max/Gemini XG (Molecular Device, CA) and SpectraMax 190 (Molecular Device).

Data set [2] relates to ERK1/2. In words: ERK1/2 activation at the lesion epicenter following SCI. The format is in vivo, rat.
A further data set has as its system rat SCI model. Kind of data set: Histology (H&E) and myelin (LFB-PAS) of spinal cord sections, rat SCI model. In kind it is in vivo. From the text:
Sprague-Dawley female rats (225-250 g weight) were purchased (Harlan laboratories, Durham, N.C.) for induction of SCI. All rats were given water and food pellets ad libitum and maintained in accordance with the ‘Guide for the Care and Use of Laboratory Animals’ of the US Department of Health and Human Services (National Institutes of Health, Bethesda, Md., USA). The inventors have used a clinically relevant weight-drop device for the induction of SCI in rats as described earlier (Gruner, 1992). Briefly, rats were anesthetized by intraperitoneal (i.p.) administration of ketamine (80 mg/kg) plus xylazine (10 mg/kg) followed by laminectomy at T12. While the spine was immobilized with a stereotactic device, injury (30 g/cm force) was induced by dropping a weight of 5 gm from a height of 6 cm onto an impounder gently placed on the spinal cord. Sham operated animals underwent laminectomy only. Upon recovery from anesthesia, animals were evaluated neurologically and monitored for food and water intake. However, no prophylactic antibiotics or analgesics were used in order to avoid their possible interactions with the experimental therapy of SCI.
Rats were anesthetized and sacrificed by decapitation.

As for “AS GalT-2 oligonucleotides: 20-mer antisense oligonucleotide 5′-CGCTTGAGCGCAGACATCTT-3′, SEQ ID NO:1, against rat lactosylceramide synthase (GalT-2) (antisense CGCTTGAGCGCAGACATCTT; chemistry not given here)”, in the data set with GalT-2, the GalT-2 protein levels entry is recorded as “diminished protein levels”.

On to Lactosylceramide [LacCer], for which the “Reversal of LY-mediated inhibition of TNFα-mediated ERK1/2 activation” value with ERK1/2 [1] (LY 30 μM plus LacCer 10 μM) is listed as “bypassed”. In addition, in the data set with ERK1/2 [1] (exogenous LacCer), the “Reversal of PD98059-mediated inhibition of TNFα-induced ERK1/2 activity” value is reported as “not”, the “Reversal of PDMP-mediated inhibition of LPS/IFNγ-induced ERK1/2 phosphorylation” value is given as “reversed” and the “Reversal of PDMP-mediated inhibition of TNFα-induced ERK1/2 activity” value is listed as “reverse”. Also, the “Reversal of LY-mediated inhibition of TNFα-mediated Ras activation” value with small GTPase Ras (LY 30 μM plus LacCer) is “bypassed”. Moreover, the “Reversal of PDMP-mediated reduction of LPS/IFNγ-mediated Ras activation” value in the data set on small GTPase Ras (LacCer plus PDMP 50 μM, LPS/IFNγ 5 min) is “fully reversed”. For the same compound, in the data set with small GTPase Ras (PDMP 25 μM plus LacCer), the “Reversal of PDMP-mediated inhibition of TNFα-induced Ras activation” value is “fully reversed”. In addition, the “Reversal of DMS-mediated inhibition of Ras activation” value with small GTPase Ras (exogenous lipid) is “reversed”. For the same compound, the “Reversal of PDMP effect on κB-luciferase activity” value with NF-κB (exogenous LacCer) was “effectively bypassed”.

On to `CCCCCCCCCC(=O)NC(CN1CCOCC1)C(O)c1ccccc1.Cl` [PDMP, D-threo-1-Phenyl-2-decanoylamino-3-morpholino-1-propanol.HCl], for which the “LPS/IFNγ-induced phosphorylation of ERK1/2” value in the data set with ERK1/2 [1] (pretreated 0.5 h, LPS/IFNγ 20 min) is reported as “inhibited”. Further, the “TNFα-induced ERK1/2 phosphorylation” value in the data set on ERK1/2 [1] (pretreated 0.5 h, TNFα 20 min) is listed as “inhibited”. The “LPS/IFNγ-mediated activation of Ras” value with small GTPase Ras (PDMP 50 μM 0.5 h, LPS/IFNγ 5 min) is reported as “reduced”. The “TNFα-induced Ras activation” value in the data set on small GTPase Ras (pretreated 0.5 h, TNFα) was “attenuated”. For the same compound, in the data set with ERK1/2 [2] (24 h following injury), the “Activated ERK1/2, double immunofluorescence” value is reported as “significantly attenuated”. Besides, the “Chronic ERK1/2 activation (immunoblot, pERK/ERK)” value in the data set on ERK1/2 [2] (PDMP 20 mg/kg post-SCI) is on record as “effectively attenuates”. Besides, the “LPS/IFNγ-induced κB-luciferase activity” value in the data set with NF-κB (PDMP 0.5 h before LPS/IFNγ) was “abolished”. Besides, in the data set on rat SCI model (Day 2 and 3 post-SCI), the “Demyelination at the lesion epicenter” value was “reduced” and the “Tissue necrosis at the lesion epicenter” value is recorded as “reduced”. Moreover, in the data set with rat SCI model (PDMP 20 mg/kg i.p. post-SCI, tissue analyzed 24 h post-SCI), the “SCI induced white matter vacuolization and tissue necrosis” value was “markedly decreased”. For the same compound, the “Protection against tissue destruction” value in the data set on rat SCI model (PDMP given 12 h post-SCI, tissue analyzed 24 h post-SCI) is reported as “substantial amount of protection”. The “Demyelination (LFB staining)” value with rat SCI model (PDMP treatment until 12 h post-SCI, 24 h post-SCI) is “attenuated”.
